Earlier results, collected in patent publication US8273371B2, “Crystalline mesoporous oxide based materials useful for the fixation and controlled release of drugs” (priority 2003, dated 2012).
“And” between values parts separate entries of the source, which are not always exact repeats. Equal values may be shown once.

Experiments:
[1] = not given; remark: listed apart in the source
[2] = ibuprofen loaded on mesoporous oxide material
[3] = from 50° C. to 130° C.
[4] = capsules with granulate of drug, surfactants, cyclodextrin, Avicel PH 101 and Primojel

CC/C(=C(/CC)c1ccc(O)cc1)c1ccc(O)cc1 [diethylstilbestrol]
solubility in water: virtually insoluble in water

CS(=O)(=O)c1ccc([C@@H](O)[C@@H](CF)NC(=O)C(Cl)Cl)cc1 [florfenicol, D-(threo)-1-p-methylsulfonyl phenyl-2-dichloroacetamido-3-fluoro-1-propanol]
oral bioavailability [1]: good oral bioavailability

CC(C)Cc1ccc(C(C)C(=O)O)cc1 (centres unmarked) [ibuprofen]
drug release after 20 hours ([2]; after 20 hours): 60%
drug release after 24 hours ([2]; after 24 hours): 55% and 68%
maximum release at the third day ([2]; third day): 80%

CCC(C)n1ncn(-c2ccc(N3CCN(c4ccc(OCC5COC(Cn6cncn6)(c6ccc(Cl)cc6Cl)O5)cc4)CC3)cc2)c1=O (centres unmarked) [itraconazole]
solubility in supercritical carbon dioxide [3]: relatively poor

CC(C)(C)c1ccc(C(O)CCCN2CCC(C(O)(c3ccccc3)c3ccccc3)CC2)cc1 (centres unmarked) [terfenadine]
water-solubility (in water): less than 0.01 mg/ml
drug release within 45 minutes [4]: 90%
